These results are taken from patent publication US20190135834A1, “5-SUBSTITUTED AZABENZIMIDAZOLE DERIVATIVE HAVING ???? ACTIVATION ACTION” (Shionogi & Co., Ltd., priority 2016, published 2019).

Each structure is given as a SMILES string.

This experiment has as its target T1, Human AMPK α2ß2γ1 (Homo sapiens, UniProt O43741+P54646).
T1 construct: The full length cDNAs of human AMPK ß2 (NM_005399.3) and human AMPK α2 (NM_006252.3); The full length cDNAs of human AMPK ß2 (NM_005399.3); 6xHis (N); made in house; host or cells: Escherichia coli BL21 CodonPlus (DE3)-RIL
Put plainly: Test Example 2: evaluation of an activator for AMP-activated protein kinase (AMPK), LabChip mobility shift assay with CaMKK2-phosphorylated enzyme. Type of experiment: biochemical. As to conditions: for EC150 (compound concentration showing 150% relative to the control (100%)): FL-Peptide 7 substrate, 25° C., 2 hours; for Emax / Emax (maximum rate of increase in activity within the measurement range): relative to control (100%); for Emax: read-out: Emax (maximum rate of increase in activity within the measurement range). Here is the method:
The full length cDNAs of human AMPK ß2 (NM_005399.3) and human AMPK α2 (NM_006252.3) were inserted into the MCS1 and MCS2 of the pETDuet-1 vector to prepare a human AMPK ß2 and human AMPK α2 (6× His tag at the 5′ terminus) expressing plasmid. The plasmid was cotransfected with an expression plasmid, in which the full length cDNA of human AMPK γ1 (NM_002733.3) had been inserted into pET28b(+), into BL21 CodonPlus (DE3)-RIL to obtain an expression strain. The expression strain was cultured in TB medium, followed by induction with 0.5 mM IPTG, and cultured at 25° C. for 3 hours and then harvested. After ultrasonication, supernatant was collected and applied to Histrap FF column (GE) and RESOURCE Q column (GE) to prepare 12.5 mg of purified sample containing three types of subunit from 1.8 L of broth.
Preparation method of human CaMKK2 used to impart activity to AMPK An expression vector, in which the full length cDNA of human CAMKK ß (NM_172226.1) had been inserted into pGEX-6P-3, was transfected into BL21 Star (DE3). The expression strain was cultured in TB medium, followed by induction with 0.5 mM IPTG, and cultured at 25° C. for 3 hours and then harvested. After ultrasonication, supernatant was collected and applied to GSTrap FF column (GE) to prepare 14 mg of GST-fused CAMKK ß from 720 ml of broth.
Thus, phosphorylation treatment was carried out as pretreatment.
Human AMPK α2ß2γ1 in an amount to give a conversion rate of approximately 10% by reaction for 2 hours, and CaMKK2 in an amount capable of sufficiently imparting activity to AMPK for one hour were mixed in a buffer solution consisting of a 50 mM HEPES-NaOH buffer solution (pH 7.0), 100 mM NaCl, 5 mM magnesium chloride, 0.1% bovine serum albumin, 0.2 mM sodium orthovanadate(V), 1 mM ethylene glycol-bis(2-aminoethyl ether)-N,N,N′,N′-tetraacetic acid (EGTA), 5 mM disodium ß-glycerophosphate, 1 mM dithiothreitol and 0.2 mM ATP, and the resulting liquid was left to stand at 25° C. for 1 to 1.5 hours to sufficiently phosphorylate AMPK.
After that, to the enzyme liquid, which had been subjected to phosphorylation treatment, a compound dissolved in DMSO was added so as to have a 1% DMSO concentration. The resulting liquid was left to stand for 10 minutes.
To the liquid, a substrate solution consisting of a 50 mM HEPES-NaOH buffer solution (pH 7.0), 100 mM NaCl, 10 mM magnesium chloride, 0.1% bovine serum albumin, 0.2 mM sodium orthovanadate(V), 1 mM ethylene glycol-bis(2-aminoethyl ether)-N,N,N′,N′-tetraacetic acid (EGTA), 5 mM disodium ß-glycerophosphate, 2 mM dithiothreitol, 0.4 mM ATP and 3 μM FL-Peptide 7 (manufactured by Caliper Life Sciences, Inc.) was added in equal amount (10 μl in total). The resulting liquid was allowed to react at 25° C. for 2 hours, and 10 μl of 20 mM EDTA was added thereto to stop the reaction.
To detect phosphorylated fluorescent substrates, the reaction mixture was applied to a measuring device, LabChip EZ Reader II manufactured by Caliper Life Science, Inc., for detecting fluorescence by using differences in mobility due to differences in charge. The setting conditions for the device were pressure, −1.5 PSI; upstream voltage, −2250 V; downstream voltage, −400 V; post sample buffer sip time, 40 seconds; final delay, 120 seconds; and peak order, Product First.
A conversion rate was calculated from the peak heights of the obtained substrate and product. The conversion rate when not containing a compound was used as a control, and a concentration dependent curve was made by plotting the rate of increase in activity to the control at each concentration of a compound.

T1 sequence (P54646 whole entry): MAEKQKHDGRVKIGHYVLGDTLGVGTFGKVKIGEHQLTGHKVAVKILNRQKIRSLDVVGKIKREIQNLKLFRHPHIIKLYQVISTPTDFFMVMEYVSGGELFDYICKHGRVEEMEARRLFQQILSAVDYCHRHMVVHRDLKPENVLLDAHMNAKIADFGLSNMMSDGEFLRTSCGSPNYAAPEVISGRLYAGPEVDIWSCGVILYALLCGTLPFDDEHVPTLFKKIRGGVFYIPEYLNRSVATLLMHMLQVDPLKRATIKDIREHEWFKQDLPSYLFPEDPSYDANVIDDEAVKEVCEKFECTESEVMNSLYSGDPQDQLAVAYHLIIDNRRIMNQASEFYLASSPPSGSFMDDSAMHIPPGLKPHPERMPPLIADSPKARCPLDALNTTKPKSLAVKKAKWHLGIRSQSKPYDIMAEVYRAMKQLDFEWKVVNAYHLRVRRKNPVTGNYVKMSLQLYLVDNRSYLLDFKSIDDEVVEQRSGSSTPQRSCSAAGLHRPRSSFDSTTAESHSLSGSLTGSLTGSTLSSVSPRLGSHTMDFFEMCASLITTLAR
T1 sequence (O43741 whole entry): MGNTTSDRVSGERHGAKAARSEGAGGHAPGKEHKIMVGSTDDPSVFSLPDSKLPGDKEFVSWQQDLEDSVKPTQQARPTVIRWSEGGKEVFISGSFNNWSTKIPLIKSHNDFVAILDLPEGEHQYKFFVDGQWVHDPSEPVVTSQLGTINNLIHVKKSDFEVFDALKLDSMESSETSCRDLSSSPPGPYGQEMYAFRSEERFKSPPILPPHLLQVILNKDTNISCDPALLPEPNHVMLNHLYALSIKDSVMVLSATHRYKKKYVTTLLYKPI
T1 sequence (P54619 whole entry partner): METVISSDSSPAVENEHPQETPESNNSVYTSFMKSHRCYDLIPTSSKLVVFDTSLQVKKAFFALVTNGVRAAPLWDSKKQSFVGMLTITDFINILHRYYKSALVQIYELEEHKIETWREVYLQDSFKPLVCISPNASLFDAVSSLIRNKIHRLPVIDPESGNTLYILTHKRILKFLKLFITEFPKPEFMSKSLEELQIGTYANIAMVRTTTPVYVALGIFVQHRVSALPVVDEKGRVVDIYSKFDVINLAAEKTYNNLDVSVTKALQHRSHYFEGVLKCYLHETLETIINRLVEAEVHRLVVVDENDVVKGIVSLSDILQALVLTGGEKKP

In the case of `O[C@@H]1CO[C@H]2[C@@H]1OC[C@H]2Oc1nc2nc(NC3CCc4cc(OCCN5CCCCC5)cc(F)c43)c(Cl)cc2[nH]1` (stereo partly drawn) [Compound I-1-38], the “EC150 (compound concentration showing 150% relative to the control (100%))” value is 8 nM and the Emax (as a rule, the size of the effect at its maximum, as opposed to the concentration needed) was 392%.

For the molecule `Cn1ccc(-c2cc(F)c3c(c2)CCC3Nc2nc3nc(O[C@@H]4CO[C@H]5[C@@H]4OC[C@H]5O)[nH]c3cc2Cl)cc1=O` (stereo partly drawn) [Compound I-1-39], the “EC150 (compound concentration showing 150% relative to the control (100%))” value is on record as 2.9 nM and the Emax is 384%.

Take `NC(=O)COc1cc(F)c2c(c1)CCC2Nc1nc2nc(O[C@@H]3CO[C@H]4[C@@H]3OC[C@H]4O)[nH]c2cc1Cl` (stereo partly drawn) [Compound I-1-42]: the “EC150 (compound concentration showing 150% relative to the control (100%))” value came out at 2.1 nM and the Emax was 391%.

As for `O=C(COc1cc(F)c2c(c1)CCC2Nc1nc2nc(O[C@@H]3CO[C@H]4[C@@H]3OC[C@H]4O)[nH]c2cc1Cl)NCO` (stereo partly drawn) [Compound I-1-43], the “EC150 (compound concentration showing 150% relative to the control (100%))” value stood at 6.5 nM and the Emax is 392%.

Take `Cn1cc(-c2cc(F)c3c(c2)CCC3Nc2nc3nc(O[C@@H]4CO[C@H]5[C@@H]4OC[C@H]5O)[nH]c3cc2Cl)cn1` (stereo partly drawn) [Compound I-1-44]: the “EC150 (compound concentration showing 150% relative to the control (100%))” value worked out at 5.6 nM and the Emax was found to be 422%.

Consider `CC(=O)Nc1cc(F)c2c(c1)CCC2Nc1nc2nc(O[C@@H]3CO[C@H]4[C@@H]3OC[C@H]4O)[nH]c2cc1Cl` (stereo partly drawn) [Compound I-1-45], for which the “EC150 (compound concentration showing 150% relative to the control (100%))” value was found to be 4.7 nM and the Emax came to 435%.

Consider `O[C@@H]1CO[C@H]2[C@@H]1OC[C@H]2Oc1nc2nc(NC3CCc4cc(-c5ccccc5)cnc43)c(Cl)cc2[nH]1` (stereo partly drawn) [Compound I-1-46], for which the “EC150 (compound concentration showing 150% relative to the control (100%))” value is 54 nM and the Emax was 381%.

For the molecule `NC(=O)COc1cnc2c(c1)CCC2Nc1nc2nc(O[C@@H]3CO[C@H]4[C@@H]3OC[C@H]4O)[nH]c2cc1Cl` (stereo partly drawn) [Compound I-1-47], the “EC150 (compound concentration showing 150% relative to the control (100%))” value is recorded as 14 nM and the maximum response (Emax) stood at 390%.

Regarding `O[C@@H]1CO[C@H]2[C@@H]1OC[C@H]2Oc1nc2nc(NC3CCc4cc(C5=CCOCC5)cnc43)c(Cl)cc2[nH]1` (stereo partly drawn) [Compound I-1-48], the “EC150 (compound concentration showing 150% relative to the control (100%))” value came to 15 nM and the Emax was 393%.

Turning to `O[C@@H]1CO[C@H]2[C@@H]1OC[C@H]2Oc1nc2nc(NC3CCc4cc(NCC(F)(F)F)cnc43)c(Cl)cc2[nH]1` (stereo partly drawn) [Compound I-1-70], the “EC150 (compound concentration showing 150% relative to the control (100%))” value is reported as 21 nM and the maximal response (Emax) was 384%.

In the case of `C/C=C/c1cc(F)c2c(c1)CCC2Oc1nc2nc(O[C@@H]3CO[C@H]4[C@@H]3OC[C@H]4O)[nH]c2cc1Cl` (stereo partly drawn) [Compound I-1-72], the “EC150 (compound concentration showing 150% relative to the control (100%))” value is on record as 13 nM and the Emax came out at 375%.

With `O[C@@H]1CO[C@H]2[C@@H]1OC[C@H]2Oc1nc2nc(OC3CCc4cc(-c5cscn5)cc(F)c43)c(Cl)cc2[nH]1` (stereo partly drawn) [Compound I-1-74], the “EC150 (compound concentration showing 150% relative to the control (100%))” value is recorded as 9.9 nM and the Emax was determined as 373%.

On to `Cn1nccc1-c1cc(F)c2c(c1)CCC2Oc1nc2nc(O[C@@H]3CO[C@H]4[C@@H]3OC[C@H]4O)[nH]c2cc1Cl` (stereo partly drawn) [Compound I-1-76], for which the “EC150 (compound concentration showing 150% relative to the control (100%))” value came to 15 nM and the maximal response (Emax) stood at 378%.

Take `Cn1cccc(-c2cc(F)c3c(c2)CCC3Oc2nc3nc(O[C@@H]4CO[C@H]5[C@@H]4OC[C@H]5O)[nH]c3cc2Cl)c1=O` (stereo partly drawn) [Compound I-1-77]: the “EC150 (compound concentration showing 150% relative to the control (100%))” value turned out to be 3.3 nM and the Emax was found to be 386%.

For `O=C1CCCN1CCOc1cc(F)c2c(c1)CCC2Nc1nc2nc(O[C@@H]3CO[C@H]4[C@@H]3OC[C@H]4O)[nH]c2cc1Cl` (stereo partly drawn) [Compound I-1-79], the “EC150 (compound concentration showing 150% relative to the control (100%))” value came to 4.2 nM and the “Emax (maximum rate of increase in activity within the measurement range)” value is given as 385%.

As to `OCCCOc1cc(F)c2c(c1)CCC2Nc1nc2nc(O[C@@H]3CO[C@H]4[C@@H]3OC[C@H]4O)[nH]c2cc1Cl` (stereo partly drawn) [Compound I-1-81], the “EC150 (compound concentration showing 150% relative to the control (100%))” value was 1.6 nM and the Emax was 387%.

Consider `O[C@@H]1CO[C@H]2[C@@H]1OC[C@H]2Oc1nc2nc(NC3CCc4cc(OCC5CCO5)cc(F)c43)c(Cl)cc2[nH]1` (stereo partly drawn) [Compound I-1-83], for which the “EC150 (compound concentration showing 150% relative to the control (100%))” value was found to be 2.2 nM and the maximal effect (Emax) was 414%.

With `COc1ccc(-c2cc(F)c3c(c2)CCC3Nc2nc3nc(O[C@@H]4CO[C@H]5[C@@H]4OC[C@H]5O)[nH]c3cc2Cl)cn1` (stereo partly drawn) [Compound I-1-86], the “EC150 (compound concentration showing 150% relative to the control (100%))” value came to 28 nM and the “Emax (maximum rate of increase in activity within the measurement range)” value is listed as 379%.

`CC(C)(O)CCOc1cc(F)c2c(c1)CCC2Nc1nc2nc(O[C@@H]3CO[C@H]4[C@@H]3OC[C@H]4O)[nH]c2cc1Cl` (stereo partly drawn) [Compound I-1-88]: the “EC150 (compound concentration showing 150% relative to the control (100%))” value is on record as 5.9 nM and the maximal response (Emax) was found to be 376%.

Consider `CCOc1cc(F)c2c(c1)CCC2Nc1nc2nc(O[C@@H]3CO[C@H]4[C@@H]3OC[C@H]4O)[nH]c2cc1Cl` (stereo partly drawn) [Compound I-1-90], for which the “EC150 (compound concentration showing 150% relative to the control (100%))” value is listed as 11 nM and the maximal effect (Emax) is 382%.

In the case of `O[C@@H]1CO[C@H]2[C@@H]1OC[C@H]2Oc1nc2nc(NC3CCc4cc(-c5ccnnc5)cc(F)c43)c(Cl)cc2[nH]1` (stereo partly drawn) [Compound I-1-91], the “EC150 (compound concentration showing 150% relative to the control (100%))” value was 1.2 nM and the Emax amounted to 466%.

As to `O[C@@H]1CO[C@H]2[C@@H]1OC[C@H]2Oc1nc2nc(NC3CCc4cc(OC5CCNCC5)cc(F)c43)c(Cl)cc2[nH]1` (stereo partly drawn) [Compound I-1-93], the “EC150 (compound concentration showing 150% relative to the control (100%))” value worked out at 4 nM and the maximal effect (Emax) is 444%.

In the case of `COC/C=C/c1cc(F)c2c(c1)CC[C@@H]2Nc1nc2nc(O[C@@H]3CO[C@H]4[C@@H]3OC[C@H]4O)[nH]c2cc1Cl` [Compound I-1-94], the “EC150 (compound concentration showing 150% relative to the control (100%))” value was 5.6 nM and the Emax was 416%.

Take `CCOCCOc1cc(F)c2c(c1)CC[C@@H]2Nc1nc2nc(O[C@@H]3CO[C@H]4[C@@H]3OC[C@H]4O)[nH]c2cc1Cl` [Compound I-1-95]: the “EC150 (compound concentration showing 150% relative to the control (100%))” value is given as 1.3 nM and the maximal response (Emax) amounted to 424%.

For `O[C@@H]1CO[C@H]2[C@@H]1OC[C@H]2Oc1nc2nc(NC3CCc4cc(OCCN5CCOCC5)cc(F)c43)c(Cl)cc2[nH]1` (stereo partly drawn) [Compound I-1-96], the “EC150 (compound concentration showing 150% relative to the control (100%))” value worked out at 3.6 nM and the Emax worked out at 430%.

Turning to `O[C@@H]1CO[C@H]2[C@@H]1OC[C@H]2Oc1nc2nc(NC3CCc4cc(OCCN5CCCC5)cc(F)c43)c(Cl)cc2[nH]1` (stereo partly drawn) [Compound I-1-97], the “EC150 (compound concentration showing 150% relative to the control (100%))” value was determined as 2.1 nM and the Emax was 433%.

As to `O=C1CCCN1CCOc1cc(F)c2c(c1)CCC2Nc1nc2nc(O[C@@H]3CO[C@H]4[C@@H]3OC[C@H]4O)[nH]c2cc1Cl` (stereo partly drawn) [Compound I-1-98], the “EC150 (compound concentration showing 150% relative to the control (100%))” value is recorded as 3.6 nM and the “Emax (maximum rate of increase in activity within the measurement range)” value is listed as 434%.
